Source: the supplement of paper PMC10307832

Tests used:
Assay in all cases: relative viability (nuclei count vs DMSO), 5 days (fraction); higher = more cells survive
Omipalisib + Pictilisib = compound: COc1ncc(-c2ccc3nccc(-c4ccnnc4)c3c2)cc1NS(=O)(=O)c1ccc(F)cc1F [Omipalisib] + CS(=O)(=O)N1CCN(Cc2cc3nc(-c4cccc5[nH]ncc45)nc(N4CCOCC4)c3s2)CC1 [Pictilisib] (partner 1 µM)
How it was run: (§1)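 For relative viability, nuclei counts in treated wells were divided by those in vehicle wells. Lung cancer cell lines had been pin-tool dosed in 1536-well plates the day after seeding and cultured for 5 days, then fixed and stained in one step (final 0.05% Triton X-100, 1% formaldehyde, 1 ug/ml Hoechst) and imaged at 4×. Doses were one drug alone or a fixed anchor-drug dose plus five library-drug doses (not always all listed) in √10 steps, and values are duplicate-plate medians.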

Omipalisib + Linsitinib = compound: COc1ncc(-c2ccc3nccc(-c4ccnnc4)c3c2)cc1NS(=O)(=O)c1ccc(F)cc1F [Omipalisib] + C[C@]1(O)C[C@@H](c2nc(-c3ccc4ccc(-c5ccccc5)nc4c3)c3c(N)nccn32)C1 [Linsitinib] (partner 1 µM)
How it was run: as §1

Omipalisib + Dasatinib = compound: COc1ncc(-c2ccc3nccc(-c4ccnnc4)c3c2)cc1NS(=O)(=O)c1ccc(F)cc1F [Omipalisib] + Cc1nc(Nc2ncc(C(=O)Nc3c(C)cccc3Cl)s2)cc(N2CCN(CCO)CC2)n1 [Dasatinib] (partner 0.075 µM)
How it was run: as §1

Omipalisib + AZD7762 = compound: COc1ncc(-c2ccc3nccc(-c4ccnnc4)c3c2)cc1NS(=O)(=O)c1ccc(F)cc1F [Omipalisib] + NC(=O)Nc1cc(-c2cccc(F)c2)sc1C(=O)N[C@H]1CCCNC1 [AZD7762] (partner 0.2 µM)
How it was run: as §1

Omipalisib + Decitabine = compound: COc1ncc(-c2ccc3nccc(-c4ccnnc4)c3c2)cc1NS(=O)(=O)c1ccc(F)cc1F [Omipalisib] + Nc1ncn([C@H]2C[C@H](O)[C@@H](CO)O2)c(=O)n1 [Decitabine] (partner 2 µM)
How it was run: as §1

Omipalisib + Vorinostat = compound: COc1ncc(-c2ccc3nccc(-c4ccnnc4)c3c2)cc1NS(=O)(=O)c1ccc(F)cc1F [Omipalisib] + O=C(CCCCCCC(=O)Nc1ccccc1)NO [Vorinostat] (partner 1 µM)
How it was run: as §1

| Cell Line | relative viability (Omipalisib + Pictilisib; first compound 0.0003 µM) | relative viability (Omipalisib + Pictilisib; first compound 0.003 µM) | relative viability (Omipalisib + Pictilisib; first compound 0.03 µM) | relative viability (Omipalisib + Linsitinib; first compound 0.0003 µM) | relative viability (Omipalisib + Linsitinib; first compound 0.003 µM) | relative viability (Omipalisib + Linsitinib; first compound 0.03 µM) | relative viability (Omipalisib + Dasatinib; first compound 0.0003 µM) | relative viability (Omipalisib + Dasatinib; first compound 0.003 µM) | relative viability (Omipalisib + Dasatinib; first compound 0.03 µM) | relative viability (Omipalisib + AZD7762; first compound 0.0003 µM) | relative viability (Omipalisib + AZD7762; first compound 0.003 µM) | relative viability (Omipalisib + AZD7762; first compound 0.03 µM) | relative viability (Omipalisib + Decitabine; first compound 0.0003 µM) | relative viability (Omipalisib + Decitabine; first compound 0.003 µM) | relative viability (Omipalisib + Decitabine; first compound 0.03 µM) | relative viability (Omipalisib + Vorinostat; first compound 0.0003 µM) | relative viability (Omipalisib + Vorinostat; first compound 0.003 µM) | relative viability (Omipalisib + Vorinostat; first compound 0.03 µM) |
| --- | --- | --- | --- | --- | --- | --- | --- | --- | --- | --- | --- | --- | --- | --- | --- | --- | --- | --- |
| NCI-H2085 | 0.416 | 0.474 | 0.436 | 0.786 | 0.737 | 0.275 | 0.258 | 0.194 | 0.227 | 1.06 | 0.84 | 0.385 | 0.524 | 0.507 | 0.348 | 0.815 | 0.701 | 0.436 |
| SK-MES-1 | 0.423 | 0.318 | 0.347 | 1.02 | 0.785 | 0.69 | 0.316 | 0.174 | 0.136 |  |  |  | 0.363 | 0.262 | 0.241 | 1.02 | 0.739 | 0.526 |
| SW 1573 | 0.495 | 0.388 | 0.341 | 0.777 | 0.476 | 0.465 | 0.165 | 0.331 | 0.101 |  |  |  | 0.306 | 0.241 | 0.239 | 0.236 | 0.456 | 0.315 |
| BEN | 0.513 | 0.378 | 0.412 | 0.669 | 0.497 | 0.554 | 0.277 | 0.3 | 0.307 | 0.533 | 0.495 | 0.521 | 0.695 | 0.612 | 0.606 | 0.502 | 0.498 | 0.452 |
